Measurements from patent US20180105492A1, “COMPOUNDS DERIVED FROM 3-ALKYLAMINE-1H-INDOLYL ACRYLATE AND THEIR USE IN THE TREATMENT OF NEURODEGENERATIVE DISEASES” (FUNDACION PARA LA INVESTIGACION BIOMEDICA DEL HOSPITAL …, priority 2014, published 2018).

Experiments:
Type in all cases: cell-based
[1] = system: SH-SY5Y cells; experiment: Neuroprotection against oxidative stress induced by menadione, pre- and co-incubation, MTT; conditions: Homo sapiens, 24 h, compound 1 μM pre- and co-incubation, Menadione (8 mM); for viability at 1 µM: read-out: % Survival
Procedure: (§1) SH-SY5Y cells [ECACC 94030304], in 5 to 16 passage after defreezing were maintained in Eagle media modified by Dulbecco (DMEM) containing 15 non-essential amino acids and supplemented with 10% fetal bovine serum, 1 mM glutamine, 50 units/mL penicillin/streptomycin (obtained from GIBCO, Madrid, Spain). Cells were seeded in flasks containing supplemented media and were maintained in an incubator at 37° C. and 5% CO2. 1:4 passes were performed twice per week. For the experiments, cells were seeded in 24 well-plates at a density of 2×10^5 cells/well, or in 96 well-plates at a density of 8×10^4 cells/well. For cytotoxicity experiments, cells were treated with the compounds before confluence with DMEM media supplemented with fetal bovine serum 1%.
(§2) In order to assess cellular viability, we measured the metabolic reduction of 3-(4,5-Dimethylthiazol-2-yl)-2,5 diphenyltetrazolium bromide (MTT). MTT is an indirect assay to measure cellular viability. It is a colorimetric method based on the reduction of 3-(4,5-Dimethylthiazol-2-yl)-2,5 diphenyltetrazolium. This process is performed by the mitochondrial enzyme succinate-dehydrogenase present in metabolic active cells. Thus, the water-soluble yellow MTT (tetrazolium salt) is transformed into a insoluble purple compound (formazan). Quantity of living cells is directly proportional to the quantity of formazan (Mosmann, 1983, J Immunol Methods, 65: 55-63). […] Therefore, with this assay we can measure cellular surviving and proliferation and also, we can determine the cytotoxicity of potential neuroprotective compounds. In order to assess cellular viability in SH-SY5Y cell line, we added 30 μl/well of MTT (5 mg/mL) and after 2 h, medium was carefully removed to avoid losing the formazan and was diluted in 300 μL of DMSO. Afterwards, samples were transferred to a 96 well-plate and the absorbance was measured at 570 nm using a absorbance/fluorescence reader FluoStar optima®. Every MTT assay was performed in triplicates. Absorbance values obtained with the toxic alone were subtracted to the absorbance values obtained in basal conditions (without treatment). That result was considered as the 100% of cell death and the values obtained with the compounds in the presence of the toxic stimulus were normalized as percentages of that value. For determining the surviving percentage, those percentages of cell death were subtracted to 100.
(§3) Neuroprotection elicited by the compounds of the invention 1-16: The activation of Nrf2-ARE pathway by different compounds exerts neuroprotective effects against toxic models based on oxidative stress via the expression of cytoprotective genes. […] We evaluated the neuroprotective potential of the compounds using the human neuroblastoma cell line using the following cytotoxicity models: 1) oxidative stress induced by rotenone+oligomycin, both blockers of the electron transport chain as previously described (Halliwell, 1992, J Neurochem, 59: 1609-23, Newhouse y col., 2004, Toxicol Sci, 79: 137-46), and 2) cytotoxicity induced by the electrophilic compound Menadione. This compound produces oxidative stress after being metabolized by microsomal enzymes in the cell which produces hydroxyl radical and oxygen reactive species. As a consequence, there is a depolarization of mitochondrial membrane generating a release of apoptotic factors such as cytochrome c, and activating the caspase cascade (Loor y col., 2010, Free Radic Biol Med, 49: 1925-36, Chuang y col., 2002, Cancer Res, 62: 6246-54). Caspase 3 activation can produce the lysis of proteins and induce DNA fragmentation, leading to cell death (Gerasimenko y col., 2002, J Cell Sci, 115: 485-97).
To further confirm the neuroprotective capacity in another model of oxidative stress, menadione was selected as toxic stimulus. […]

[2] = system: HepG2 cells; experiment: Hepatotoxicity in HepG2 cell line, reduction of cell viability (MTT)
Procedure: as §2
In general, compounds capable of inducing the transcription factor Nrf2 may have a hepatotoxic effect, due to the electrophilic character that generally characterizes them. The derivatives objects of this invention were designed to avoid this toxicity and to improve its safety profile. The liver plays an essential role in the metabolism of endogenous and exogenous compounds. Hepatocytes capture these compounds and after metabolizing them, they are eliminated by different mechanisms. Metabolized compounds usually have less pharmacological activity and less toxicity than the corresponding active principles. However, in certain cases, the active principles or their metabolites may be toxic to the hepatocytes. Hepatic toxicity is one of the leading causes of drug withdrawal from preclinical studies. […] In addition, these cells have been defined by the European Medicines Agency (EMA) as a model of hepatoxicity by measuring the induction of apoptosis and/or cell survival. Therefore, the safety profile of the compounds object of the present invention was evaluated in the HepG2 hepatic cancer cell line. HepG2 cells were cultured in T75 flask using EMEM as culture medium supplemented with non-essential amino acids, 10% fetal bovine serum, 50 units/mL penicillin and 50 μg/mL streptomycin (reagents from GIBCO, Madrid, Spain). Cultures were maintained in an incubator with an O2/CO2 gas mixture (95/5%) at 37° C. with a humid atmosphere and two passes per week were made when they reached 90% of confluence. All experiments were performed on cells that were between passages 5 and 15. For the experiments, the cells were plated in 96-well plates at a density of 4×10 ^4 cells/well in 200 μl of culture medium. After 24 h in culture, the medium was removed and replaced with 100 μL of the corresponding solution of the compounds of the invention in culture medium at the selected concentrations (1, 10, 30 and 100 μM). The compounds were studied in triplicate, including in each experiment 3 wells without treatment, which was considered as 100% of viability (baseline conditions). After 24 h of incubation with the treatments, cell viability was assessed by the MTT reduction method. […]

[3] = system: SH-SY5Y cells; experiment: Neuroprotection against rotenone/oligomycin A, pre-incubation model, MTT; conditions: Homo sapiens, compound 1 μM pre-incubation 24 h, then Rot/Olig (30/10 μM); for viability at 1 µM: read-out: % Survival
Procedure: as §1, §2, §3
For this study we propose a protocol in which the cells are pre-incubated with each of the derivatives at 1 μM for 24 h. After the pre-incubation period, the medium was removed and replaced by culture medium with the rotenone/oligomycin-A (30 μM and 10 μM, respectively) toxic mixture. […]

[4] = 24 h incubation, MTT, concentration reducing viability to 50% of basal

SMILES	% protection against menadione toxicity at 1 µM [1]	viability at 1 µM [1]	HepG2 LD50 [2, 4]	percent protection against toxin-induced cell death at 1 µM [3]	viability at 1 µM [3]	HepG2 LD50 ([2]; human, 24 h)
CC(=O)NCCc1c[nH]c2ccc(OC(=O)/C=C/c3ccc(F)cc3)cc12 [Compound 9, 3-(2-acetamidoethyl)-1H-indol-5-yl (E)-3-(4-fluorophenyl)acrylate]	29.6%	71.6 ± 3.74%	>100 µM	21.5%	67.4 ± 2.13%	–
COc1ccc(/C=C/C(=O)Oc2ccc3[nH]cc(CCNC(C)=O)c3c2)cc1 [Compound 6, 3-(2-acetamidoethyl)-1H-indol-5-yl (E)-3-(4-methoxyphenyl)acrylate]	35.8%	74.7 ± 2.91%	>100 µM	29.8%	70 ± 3.04%	–
COc1cc(/C=C/C(=O)Oc2ccc3[nH]cc(CCNC(C)=O)c3c2)ccc1O [Compound 8, 3-(2-acetamidoethyl)-1H-indol-5-yl (E)-3-(4-hydroxy-3-methoxyphenyl)acrylate]	69.4%	89.9 ± 1.86%	>100 µM	37%	74 ± 3.13%	–
COc1ccccc1/C=C/C(=O)Oc1ccc2[nH]cc(CCNC(C)=O)c2c1 [Compound 4, 3-(2-acetamidoethyl)-1H-indol-5-yl (E)-3-(2-methoxyphenyl)acrylate]	67.1%	90.5 ± 1.97%	>100 µM	19%	67.1 ± 2.61%	–
CC(=O)NCCc1c[nH]c2ccc(OC(=O)/C=C/c3ccc(Br)cc3)cc12 [Compound 10, 3-(2-acetamidoethyl)-1H-indol-5-yl (E)-3-(4-bromophenyl)acrylate]	27.6%	72.4 ± 3.75%	>100 µM	30.2%	71.1 ± 2.61%	–
CC(=O)NCCc1c[nH]c2ccc(OC(=O)/C=C/c3ccccc3C(F)(F)F)cc12 [Compound 13, 3-(2-acetamidoethyl)-1H-indol-5-yl (E)-3-(2-(trifluoromethyl)phenyl)acrylate]	36.2%	74.9 ± 2.19%	>100 µM	22.1%	67 ± 3.01%	–
CC(=O)NCCc1c[nH]c2ccc(OC(=O)/C=C/c3ccc(O)cc3)cc12 [Compound 7, 3-(2-acetamidoethyl)-1H-indol-5-yl (E)-3-(4-hydroxyphenyl)acrylate]	61.8%	86.8 ± 3.24%	>100 µM	32.5%	71.5 ± 4.92%	–
CC(=O)NCCc1c[nH]c2ccc(OC(=O)/C=C/c3ccccc3)cc12 [Compound 2, 3-(2-acetamidoethyl)-1H-indol-5-yl cinnamate]	32.5%	74 ± 3.18%	>100 µM	34.7%	72.7 ± 3.59%	–
CC(=O)NCCc1c[nH]c2ccc(OC(=O)/C=C/c3ccc(C)cc3)cc12 [Compound 3, 3-(2-acetamidoethyl)-1H-indol-5-yl (E)-3-(4-methylphenyl)acrylate]	25%	71.4 ± 2.43%	>100 µM	20.5%	67 ± 3.21%	–
CC(=O)NCCc1c[nH]c2ccc(OC(=O)/C=C/c3ccc(Cl)cc3)cc12 [Compound 11, 3-(2-acetamidoethyl)-1H-indol-5-yl (E)-3-(4-chlorophenyl)acrylate]	57%	85.7 ± 2.93%	>100 µM	33.5%	73.2 ± 3.12%	–
CC(=O)NCCc1c[nH]c2ccc(OC(=O)/C=C/c3ccc(Cl)c(Cl)c3)cc12 [Compound 12, 3-(2-acetamidoethyl)-1H-indol-5-yl (E)-3-(3,4-dichlorophenyl)acrylate]	59.3%	86.5 ± 3.04%	>100 µM	25.3%	70.1 ± 4.35%	–
COc1ccc2[nH]cc(CCNC(C)=O)c2c1 [Melatonin, reference compound]	37.4%	72.9 ± 5.24%	–	31.6%	71.8 ± 2.81%	>100 µM
CC(=O)NCCc1c[nH]c2ccc(OC(=O)/C=C/c3cccc(C(F)(F)F)c3)cc12 [Compound 14, 3-(2-acetamidoethyl)-1H-indol-5-yl (E)-3-(3-(trifluoromethyl)phenyl)acrylate]	44.8%	78.5 ± 3.03%	>100 µM	34.9%	72.5 ± 2.92%	–
CC(=O)NCCc1c[nH]c2ccc(OC(=O)/C=C/c3ccc(C(F)(F)F)cc3)cc12 [Compound 15, 3-(2-acetamidoethyl)-1H-indol-5-yl (E)-3-(4-(trifluoromethyl)phenyl)acrylate]	31.6%	73.2 ± 3.43%	>100 µM	37.5%	73.4 ± 3.31%	–
COc1cccc(/C=C/C(=O)Oc2ccc3[nH]cc(CCNC(C)=O)c3c2)c1 [Compound 5, 3-(2-acetamidoethyl)-1H-indol-5-yl (E)-3-(3-methoxyphenyl)acrylate]	38.1%	76 ± 3.31%	>100 µM	27.1%	70.2 ± 2.42%	–
CC(=O)NCCc1c[nH]c2ccc(OC(=O)/C=C/c3ccc([N+](=O)[O-])cc3)cc12 [Compound 16, 3-(2-acetamidoethyl)-1H-indol-5-yl (E)-3-(4-nitrophenyl)acrylate]	53.6%	84.3 ± 2.15%	>100 µM	23%	68.5 ± 2.88%	–
